The source of these data is patent publication US4416892A, “Method of treating hypersensitivity disease with benzoxazole derivatives” (Lilly Industries Limited, priority 1981, dated 1983).

One assay has as its system SRS-A release. The experiment in a line: guinea-pig chopped lung test (inhibition of SRS-A / mediator release). It is filed as cell-based. The following applies: Cavia porcellus, 0.25 h; 3×10^-5 M; ovalbumin-sensitised guinea pig lung, antigen challenge, 37° C., 15 mins; mean of four samples. The protocol:
These tests are well-recognised as indicative of anti-allergy activity in humans and mammals in general. Compounds were tested in the guinea pig chopped lung test referred to above. […] Male albino guinea pigs (250-350 g) were sensitised with ovalbumin (100 mg s/c+100 mg i p.) and three weeks later killed, their lungs removed and perfused clear of blood with Tyrode's solution. The lungs were chopped into 0.5 mm cubes and divided into 400 mg aliquots. After washing and equilibration at 37° C., the aliquots were challenged with antigen in the presence or absence of the test compound. One control group was not challenged and was used to assess non-anaphylactic SRS-A release. Following incubation with rocking at 37° C. for 15 mins, each supernatant was removed and bio-assayed. Results are expressed as the percentage inhibition of SRS-A release after exposure to 3×10^-5M solutions of test compound. Each result is the mean of four samples.
For the compound `CC(C(=O)O)c1ccc2nc(-c3ccccc3Cl)oc2c1` (stereo not drawn) [2-(2-chlorophenyl)-α-methyl-6-benzoxazoleacetic acid], the inhibition at 30 µM was determined as 16%.
Regarding `CC(C(=O)O)c1ccc2oc(-c3cccc(C(F)(F)F)c3)nc2c1` (stereo not drawn) [2-(3-trifluoromethylphenyl)-α-methyl-5-benzoxazoleacetic acid], the inhibition at 30 µM was determined as 27%.
On the same count and under the same terms, the value for `CC(C(=O)O)c1ccc2oc(-c3ccc(Cl)cc3)nc2c1` (stereo not drawn) [2-(4-chlorophenyl)-α-methyl-5-benzoxazoleacetic acid] was 62%; that for `CC(C(=O)O)c1ccc2nc(-c3ccc(Cl)cc3)oc2c1` (stereo not drawn) [2-(4-chlorophenyl)-α-methyl-6-benzoxazoleacetic acid] was 38%.
Take `CC(C(=O)O)c1ccc2oc(-c3ccc(F)cc3)nc2c1` (stereo not drawn) [2-(4-fluorophenyl)-α-methyl-5-benzoxazoleacetic acid]: the inhibition at 30 µM amounted to 36%.

The next assay concerns allergic bronchospasm. In words: Herxheimer test (allergic bronchospasm in sensitised guinea pigs). It is filed as in vivo, guinea pig. As to conditions: dose 50 (first column; head is a drawing), oral, 4 hours before ovalbumin challenge, mepyramine 0.5 mg/kg s.c.; ratio of 1.4 or greater significant.
Description: Male guinea pigs were sensitised with ovalbumin and then exposed to ovalbumin aerosol (1% w/v solution) in an observation chamber. The animals were kept in the exposure chamber until symptoms of respiratory distress, terminating in a characteristic convulsive cough. The time of exposure is the "collapse time". […] Accordingly, the response to each compound in the presence of mepyramine (0.5 mg/kg s.c.) given half an hour before challenge was studied. The compound itself was given orally four hours before antigen challenge. A protection ratio of 1.4 or greater is considered significant.
As for `CC(C(=O)O)c1ccc2oc(-c3ccc(Cl)cc3)nc2c1` (stereo not drawn) [2-(4-chlorophenyl)-α-methyl-5-benzoxazoleacetic acid], the protection ratio is reported as 2.7.
